According to the supplement of paper PMC11281043:
± gives the standard deviation of the averaged measurements.

Columns and labels:
Conditions in all cases: exposure: 6-8 hpf to 5 dpf, scored at 6 dpf
Danio rerio embryo/larva [1] = experiment: max % larvae dead across tested concentrations; max tested concentration (log10 uM): 2; higher = more toxic; extreme values may be limits of the assay
Danio rerio embryo/larva [2] = experiment: max % larvae with any abnormality across tested concentrations; max tested concentration (log10 uM): 2; higher = more toxic; extreme values may be limits of the assay
Danio rerio embryo/larva [3] = experiment: max % larvae unhatched across tested concentrations; max tested concentration (log10 uM): 2; higher = more toxic
Danio rerio embryo/larva [4] = experiment: max % larvae with tail defects across tested concentrations; higher = more toxic; extreme values may be limits of the assay
Danio rerio embryo/larva [5] = experiment: max % larvae with craniofacial defects across tested concentrations; higher = more toxic; extreme values may be limits of the assay
Danio rerio embryo/larva [6] = experiment: max % larvae with abnormal position across tested concentrations; higher = more toxic; extreme values may be limits of the assay
Danio rerio embryo/larva [7] = experiment: max % larvae with blood pooling across tested concentrations; higher = more toxic; extreme values may be limits of the assay
Danio rerio embryo/larva [8] = experiment: max % larvae with uninflated swim bladder across tested concentrations; higher = more toxic; extreme values may be limits of the assay
Danio rerio embryo/larva [9] = experiment: max % larvae with spinal defects across tested concentrations; higher = more toxic; extreme values may be limits of the assay
Danio rerio embryo/larva [10] = experiment: max % larvae generally abnormal across tested concentrations; higher = more toxic; extreme values may be limits of the assay
Danio rerio embryo/larva [11] = experiment: max % larvae with edema across tested concentrations; higher = more toxic; extreme values may be limits of the assay
Danio rerio embryo/larva [12] = experiment: max % larvae with pigmentation defects across tested concentrations; higher = more toxic

Row | Structure (SMILES) | max % larvae dead across tested concentrations (Danio rerio embryo/larva [1]) | max % larvae (Danio rerio embryo/larva [2]) | max % larvae unhatched across tested concentrations (Danio rerio embryo/larva [3]) | further results
1 | OCC(F)(F)C(F)(F)C(F)(F)F [3:1 Fluorotelomer alcohol] | 0% | 8.33% | 0% | 
2 | O=C(O)C(F)(F)OC(F)(F)C(F)(F)OC(F)(F)F [Perfluoro-3,6-dioxaheptanoic acid] | 0% | 4.17% | 0% | 
3 | O=C(O)C(F)(F)C(F)(F)C(=O)O [Perfluorobutanedioic acid] | 16.7% | 16.7% | 0% | 
4 | O=C(O)C(F)(F)C(F)(F)C(F)F [4H-Perfluorobutanoic acid] | 0% | 0% | 0% | 
5 | O=C(Cl)C(F)(F)C(F)(F)C(F)(F)C(F)(F)C(F)(F)C(F)(F)F [Perfluoroheptanoyl chloride] | 0% | 16.7% | 0% | 
6 | O=C(Cl)C(F)(F)C(F)(F)C(F)(F)C(=O)Cl [Hexafluoroglutaryl chloride] | 0% | 0% | 0% | 
7 | O=S(=O)(O)CCC(F)(F)C(F)(F)C(F)(F)C(F)(F)F [4:2 Fluorotelomer sulfonic acid] | 0% | 0% | 0% | 
8 | O=C(O)CCC(F)(C(F)(F)F)C(F)(F)F [4,4-bis(Trifluoromethyl)-4-fluoropropanoic acid] | 16.7% | 16.7% | 0% | 
9 | NCC(F)(F)C(F)(F)C(F)(F)C(F)(F)C(F)(F)C(F)(F)C(F)(F)F [1H,1H-Perfluorooctylamine] | 8.33 ± 12% | 33.3 ± 47% | 0% | 
10 | O=C(O)C(F)(F)C(F)(F)C(F)(F)C(F)(F)C(F)(F)C(F)(F)C(F)(F)C(F)F [9H-Perfluorononanoic acid] | 0% | 18.8% | 0% | 
11 | O=C(O)C(F)(F)C(F)(F)C(F)(F)C(F)(F)F [Perfluoropentanoic acid] | 0% | 25% | 0% | 
12 | C=C(C)C(=O)OCCC(F)(F)C(F)(F)C(F)(F)C(F)(F)C(F)(F)C(F)(F)F [2-(Perfluorohexyl)ethyl methacrylate] | 0% | 0% | 0% | 
13 | FC(F)(F)COC(OCC(F)(F)F)OCC(F)(F)F [tris(Trifluoroethoxy)methane] | 0% | 0% | 0% | 
14 | NC(=O)C(F)(F)C(F)(F)C(F)(F)C(F)(F)C(N)=O [Octafluoroadipamide] | 0% | 0% | 0% | 
15 | O=P(O)(O)OCCC(F)(F)C(F)(F)C(F)(F)C(F)(F)C(F)(F)C(F)(F)F [6:2 Fluorotelomer phosphate monoester] | 0% | 0% | 0% | 
16 | CCOC(=O)CC(=O)C(F)(F)C(F)(F)F [Ethyl pentafluoropropionyl acetate] | 0% | 0% | 0% | 
17 | O=C(O)C(F)(F)C(F)(F)C(F)(F)C(F)(F)C(F)(F)C(F)(F)C(F)(F)F [Sodium perfluorooctanoate] | 0% | 0% | 0% | 
18 | OCCCC(F)(F)C(F)(F)C(F)(F)C(F)(F)C(F)(F)C(F)(F)C(F)(F)C(F)(F)F [3-(Perfluorooctyl)propanol] | 0% | 0% | 0% | 
19 | O=C(O)C(F)(F)C(F)(F)C(F)(F)C(F)(F)C(F)(F)F [Perfluorohexanoic acid] | 0% | 0% | 0% | 
20 | FC(F)(Br)C(F)(F)C(F)(F)C(F)(F)C(F)(F)C(F)(F)Br [1,6-Dibromododecafluorohexane] | 0% | 4.17% | 0% | 

Row | Structure (SMILES) | max % larvae dead across tested concentrations (Danio rerio embryo/larva [1]) | max % larvae (Danio rerio embryo/larva [2]) | max % larvae unhatched across tested concentrations (Danio rerio embryo/larva [3]) | further results
21 | OCCC(F)(F)C(F)(F)C(F)(F)C(F)(F)F [4:2 Fluorotelomer alcohol] | 0% | 4.17% | 0% | 
22 | NC(=O)C(F)(F)C(F)(F)C(F)(F)F [Heptafluorobutyramide] | 16.7% | 25% | 0% | 
23 | COC(=O)C(F)(F)C(F)(F)C(F)(F)C(F)(F)C(F)(F)F [Methyl perfluorohexanoate] | 0% | 0% | 0% | 
24 | NC(=O)C(F)(F)C(F)(F)C(F)(F)C(F)(F)C(F)(F)C(F)(F)C(F)(F)F [Perfluorooctanamide] | 0% | 0% | 0% | 
25 | O=C(O)C(F)(F)C(F)(F)C(F)(F)F [Perfluorobutanoic acid] | 0% | 20% | 0% | 
26 | O=S(=O)(O)C(F)(F)C(F)(F)C(F)(F)C(F)(F)F [Perfluorobutanesulfonic acid] | 0% | 0% | 0% | 
27 | O=C(O)C(F)(F)C(F)(F)C(F)(F)C(F)(F)C(F)(F)C(F)(F)C(F)F [8H-Perfluorooctanoic acid] | 0% | 16.7% | 0% | 
28 | C=C(C)C(=O)OCCC(F)(F)C(F)(F)C(F)(F)C(F)(F)C(F)(F)C(F)(F)C(F)(F)C(F)(F)F [2-(Perfluorooctyl)ethyl methacrylate] | 0% | 0% | 0% | 
29 | O=C(O)C(F)(F)C(F)(F)OC(F)(F)F [Perfluoro-3-methoxypropanoic acid] | 0% | 16.7% | 0% | 
30 | C=C(C)C(=O)OCCC(F)(F)C(F)(F)C(F)(F)C(F)(F)C(F)(C(F)(F)F)C(F)(F)F [(Perfluoro-5-methylhexyl)ethyl 2-methylprop-2-enoate] | 0% | 0% | 0% | 
31 | NC(=O)C(F)(F)C(F)(F)F [Pentafluoropropionamide] | 0% | 0% | 0% | 
32 | O=C(O)C=C(C(F)(F)F)C(F)(F)F [3,3-Bis(trifluoromethyl)-2-propenoic acid] | 0% | 2.08% | 0% | 
33 | C=CC(=O)OCC(F)(F)C(F)(F)C(F)(F)C(F)(F)C(F)(F)C(F)(F)C(F)(F)F [1H,1H-Perfluorooctyl acrylate] | 0% | 0% | 0% | 
34 | O=S(=O)(O)C(F)(F)C(F)(F)C(F)(F)C(F)(F)F [Potassium perfluorobutanesulfonate] | 0% | 8.33% | 0% | 
35 | FC(F)(F)C(F)(F)C(F)(F)CI [Heptafluorobutyl iodide] | 0% | 0% | 0% | 
36 | O=C(O)C(F)(F)C(F)(F)C(F)(F)C(=O)O [Perfluoropentanedioic acid] | 0% | 0% | 0% | 
37 | O=S(=O)(O)C(F)(F)C(F)(F)OC(F)(F)C(F)(F)F [Perfluoro-2-ethoxyethanesulfonic acid] (max tested concentration (log10 uM): 2) |  |  |  | max % larvae (Danio rerio embryo/larva [4]): 0%; max % larvae (Danio rerio embryo/larva [5]): 0%; max % larvae (Danio rerio embryo/larva [6]): 0%; max % larvae (Danio rerio embryo/larva [7]): 0%; max % larvae (Danio rerio embryo/larva [8]): 16.7%; max % larvae (Danio rerio embryo/larva [9]): 0%; max % larvae generally abnormal across tested concentrations (Danio rerio embryo/larva [10]): 8.33%; max % larvae (Danio rerio embryo/larva [11]): 8.33%; max % larvae (Danio rerio embryo/larva [12]): 0%
38 | O=C(O)C(F)(F)C(F)(F)C(F)(F)C(F)(F)F [Perfluoropentanoic acid] (max tested concentration (log10 uM): 2) |  |  |  | max % larvae (Danio rerio embryo/larva [4]): 0%; max % larvae (Danio rerio embryo/larva [5]): 0%; max % larvae (Danio rerio embryo/larva [6]): 4.17%; max % larvae (Danio rerio embryo/larva [7]): 0%; max % larvae (Danio rerio embryo/larva [8]): 16.7%; max % larvae (Danio rerio embryo/larva [9]): 0%; max % larvae generally abnormal across tested concentrations (Danio rerio embryo/larva [10]): 16.7%; max % larvae (Danio rerio embryo/larva [11]): 16.7%; max % larvae (Danio rerio embryo/larva [12]): 0%
39 | O=C(O)C(F)(F)C(F)(F)C(F)(F)C(F)(F)C(F)(F)C(F)(F)C(F)(F)F [Sodium perfluorooctanoate] (max tested concentration (log10 uM): 2) |  |  |  | max % larvae (Danio rerio embryo/larva [4]): 0%; max % larvae (Danio rerio embryo/larva [5]): 0%; max % larvae (Danio rerio embryo/larva [6]): 0%; max % larvae (Danio rerio embryo/larva [7]): 0%; max % larvae (Danio rerio embryo/larva [8]): 0%; max % larvae (Danio rerio embryo/larva [9]): 0%; max % larvae generally abnormal across tested concentrations (Danio rerio embryo/larva [10]): 0%; max % larvae (Danio rerio embryo/larva [11]): 0%; max % larvae (Danio rerio embryo/larva [12]): 0%
40 | O=C(O)C(F)(F)C(F)(F)C(F)(F)C(F)(F)C(=O)O [Perfluorohexanedioic acid] (max tested concentration (log10 uM): 2) |  |  |  | max % larvae (Danio rerio embryo/larva [4]): 0%; max % larvae (Danio rerio embryo/larva [5]): 0%; max % larvae (Danio rerio embryo/larva [6]): 0%; max % larvae (Danio rerio embryo/larva [7]): 0%; max % larvae (Danio rerio embryo/larva [8]): 0%; max % larvae (Danio rerio embryo/larva [9]): 0%; max % larvae generally abnormal across tested concentrations (Danio rerio embryo/larva [10]): 0%; max % larvae (Danio rerio embryo/larva [11]): 0%; max % larvae (Danio rerio embryo/larva [12]): 0%
